Laboratory results from ChEMBL document CHEMBL1151803, “Melanin synthesis inhibitors from Lespedeza cyrtobotrya” (J Nat Prod, 2009).

Columns and labels:
[1] = Inhibition of melanin synthesis in NHEM after 24 hrs by liquid scintillation; assay type: functional, Homo sapiens
[2] = Cytotoxicity against NHEM cells assessed as cell viability 24 hrs by WST-8 assay; assay type: cell-based; settings: human

SMILES | IC50 [1] | Activity [2] | IC50 ([1]; read-out: IC50) [µM]
CC(C)=CCc1c(O)cc(O)c2c1O[C@H](c1ccc(O)cc1O)CC2=O [LEACHIANONE G] | Not Active | Non-toxic | 
CC(C)=CCc1cc(/C=C/C(=O)c2ccc(O)cc2O)ccc1O [LICOAGROCHALCONE A] |  | Non-toxic | 3.2
CC(C)=CCc1c(O)c2c(c3c1O[C@H]1c4cc5c(cc4OC[C@@H]31)OC(C)(C)C=C5)C=CC(C)(C)O2 [LESPECYRTIN E4] |  | Non-toxic | 4.5
COc1c(O)ccc(-c2coc3cc(O)cc(O)c3c2=O)c1OC [BAVAISOFLAVANONE] |  | Non-toxic | 38.4
COc1c2c(cc3c1[C@@H]1Oc4ccc5c(c4[C@@H]1CO3)C=CC(C)(C)O5)OC(C)(C)C=C2 [GANGETININ] |  | Non-toxic | 4.6
OC[C@H]1O[C@@H](Oc2ccc(O)cc2)[C@H](O)[C@@H](O)[C@@H]1O [ARBUTIN] |  |  | 2.2
C=C(C)C1Cc2c(ccc(C(=O)/C=C/c3ccc(O)cc3)c2O)O1 (stereo not drawn) [LESPECYRTIN B1] |  | Non-toxic | 1.3
CC(C)=CCc1c(O)c2c(c3c1[C@@H]1COc4cc5c(cc4[C@@H]1O3)C=CC(C)(C)O5)C=CC(C)(C)O2 [LESPECYRTIN E2] |  | Non-toxic | 3.7
CC(C)=CCc1c(O)ccc2c1O[C@H](c1ccc(O)cc1)[C@@H](O)C2=O [LESPECYRTIN A1] | Not Active | Non-toxic | 
CC(C)=CCc1cc2c(cc1O)OC[C@H]1c3ccc(O)c(CC=C(C)C)c3O[C@@H]21 [ERYBRAEDIN C] |  | Non-toxic | 5.5
COc1cc([C@@H]2COc3cc(O)c(CC=C(C)C)cc3C2)c(O)cc1O [LESPECYRTIN D1] |  | Non-toxic | 2.1
O=C1C[C@@H](c2ccc(O)cc2)Oc2cc(O)ccc21 [LIQUIRTIGENIN] |  | Non-toxic | 14.7
CC1(C)C=Cc2cc3c(cc2O1)OC[C@H]1c2ccc4c(c2O[C@@H]31)C=CC(C)(C)O4 [LESPECYRTIN E1] |  | Non-toxic | 
CC(C)=CCC1=C(O)C(Cc2c(-c3cc(CC=C(C)C)c(O)cc3O)oc3c(CC=C(C)C)c(O)c(O)cc23)=C[C@@H]2c3c(c4cc(CC=C(C)C)c(O)cc4oc3=O)O[C@H]12 [LESPECYRTIN H1] |  | Non-toxic | 8.9
CC(C)=CCc1c(O)ccc2c1O[C@H]1c3ccc(O)cc3OC[C@@H]21 [PHASEOLLIDIN] |  | Non-toxic | 8.7
CC(C)=CCc1cc2c(cc1O)OCc1c-2oc2c(CC=C(C)C)c(O)c(O)cc12 [LESPECYRTIN F2] |  | Non-toxic | 15.9
CC(C)=CCc1c(O)ccc(C(=O)/C=C/c2ccc(O)cc2)c1O [ISOBAVACHALCONE] |  | Non-toxic | 1.4
CC(C)=CCc1c(O)cc2occ(-c3ccc(O)cc3O)c(=O)c2c1O [UNCINANONE A] |  | Non-toxic | 5.4
C=C(C)C1Cc2c(ccc(C(=O)CCc3ccc(O)cc3)c2O)O1 (stereo not drawn) [LESPECYRTIN C1] |  | Non-toxic | 3
O=C1C[C@@H](c2ccc(O)cc2)Oc2cc(O)cc(O)c21 [NARINGENIN] |  | Non-toxic | 73.5
CC(C)=CCc1cc(-c2coc3cc(O)ccc3c2=O)ccc1O [NEOBAVAISOFLAVONE] |  | Non-toxic | 9.4
Oc1ccc(O)cc1 [HYDROQUINONE] |  |  | 103
CC(C)=CCc1cc([C@@H]2CC(=O)c3ccc(O)cc3O2)ccc1O [ABYSSINONE II] |  | Non-toxic | 2

SMILES | IC50 [1] | Activity [2] | IC50 ([1]; read-out: IC50) [µM]
CC(C)=CCc1cc2c(cc1O)OC[C@H]1c3c4c(c(O)c(CC=C(C)C)c3O[C@@H]21)OC(C)(C)C=C4 [LESPECYRTIN E3] |  | Non-toxic | 0.4
CC(C)=CCC/C(C)=C/Cc1c(O)ccc(C(=O)/C=C/c2ccc(O)cc2)c1O [XANTHOANGELOL] |  | Non-toxic | 0.98
Cc1c(O)cc2c(c1O)C(=O)[C@H](O)[C@@H](c1ccc(O)cc1)O2 | Not Active | Non-toxic | 
CC(C)=CCc1c(O)c(O)cc2c1oc1c3ccc(O)cc3oc(=O)c21 [LESPECYRTIN G1] | Not Active | Non-toxic | 
CC(C)=CCc1c(O)c(C)cc2c1O[C@H]1c3cc4c(cc3OC[C@@H]21)OC(C)(C)C=C4 [LESPECYRTIN E5] |  | Non-toxic | 1.5
CC(C)=CCc1c(O)ccc2c1O[C@H]1c3ccc(O)c(CC=C(C)C)c3OC[C@@H]21 [ERYBRAEDIN A] |  | Non-toxic | 2
CC(C)=CCc1cc2c(cc1O)OC[C@H]1c3cc(C)c(O)c(CC=C(C)C)c3O[C@@H]21 [LESPEFLORIN G4] |  | Non-toxic | 3.2
CC(C)=CCc1cc2c(cc1O)oc(=O)c1c3cc(O)c(O)c(CC=C(C)C)c3oc21 [LESPEFLORIN I2] |  | Non-toxic | 25.7
COc1cc2c(cc1O)O[C@H]1c3cc4c(cc3OC[C@@H]21)OC(C)(C)[C@H](O)C4 [LESPECYRTIN E7] |  | Non-toxic | 16
CC(C)=CCc1cc2c(cc1O)O[C@H](c1ccc(O)cc1)CC2=O [BAVACHIN] |  | Non-toxic | 18
CC(C)=CCC1=C(O)C(C(=O)c2c(-c3cc4c(cc3O)OC(C)(C)C=C4)oc3c(CC=C(C)C)c(O)c(O)cc23)=C[C@@H]2c3c(c4cc(CC=C(C)C)c(O)cc4oc3=O)O[C@H]12 [LESPECYRTIN H3] |  | Non-toxic | 10.1
CC(C)=CCC1=C(O)C(C(=O)c2c(-c3cc(CC=C(C)C)c(O)cc3O)oc3c4c(c(O)cc23)OC(C)(C)C=C4)=C[C@@H]2c3c(c4cc(CC=C(C)C)c(O)cc4oc3=O)O[C@H]12 [LESPECYRTIN H4] |  | Non-toxic | 6.2
O=c1c(-c2ccc(O)cc2)coc2cc(O)cc(O)c12 [GENISTEIN] |  | Non-toxic | 29.2
CC(C)=CCc1cc(-c2oc3c(CC=C(C)C)c(O)c(O)cc3c2C(=O)c2cc3c(c(CC=C(C)C)c2O)O[C@H]2c4cc(CC=C(C)C)c(O)cc4OC[C@@H]32)c(O)cc1O [LESPEFLORIN J3] |  | Non-toxic | 
CC(C)=CCC1=C(O)C(C(=O)c2c(-c3cc(CC=C(C)C)c(O)cc3O)oc3c(CC=C(C)C)c(O)c(O)cc23)=C[C@@H]2c3c(c4cc(CC=C(C)C)c(O)cc4oc3=O)O[C@H]12 [LESPECYRTIN H2] | Not Active | Non-toxic | 
CC(C)=CCc1c(O)ccc2c1O[C@H]1c3cc(CCC(C)(C)O)c(O)cc3OC[C@@H]21 [LESPECYRTIN E6] |  | Non-toxic | 3.4
CC(C)=CCc1c(O)c(O)cc2c3c(oc12)-c1ccc(O)cc1OC3 [LESPECYRTIN F1] | Not Active | Non-toxic | 
CC(C)(O)C1Cc2c(O)ccc(C(=O)/C=C/c3ccc(O)cc3)c2O1 (stereo not drawn) [LESPECYRTIN B3] |  | Non-toxic | 9.1
CC1(C)C=Cc2c(ccc(C(=O)CCc3ccc(O)cc3)c2O)O1 |  | Non-toxic | 2
CC1(C)C=Cc2c(ccc3c2O[C@H]2c4ccc(O)cc4OC[C@@H]32)O1 [PHASEOLIN] |  | Non-toxic | 7.5
CC1(C)C=Cc2c(O)ccc(C(=O)/C=C/c3ccc(O)cc3)c2O1 [LESPECYRTIN B2] |  | Non-toxic | 1
CC(C)=CCCC1(C)C=Cc2c(ccc(C(=O)/C=C/c3ccc(O)cc3)c2O)O1 (stereo not drawn) [LESPEOL] |  | Non-toxic | 2.4
Cc1c(O)cc2occ(-c3ccc(O)cc3)c(=O)c2c1O | Not Active | Non-toxic | 
